Results reported in ChEMBL document CHEMBL1141055, “Discovery of novel conformationally restricted diazocan peptidomimetics as inhibitors of interleukin-1beta synthesis” (Bioorg Med Chem Lett, 2005).

What was measured:
THP-1 = assay: Inhibition of 1 ug/mL LPS-induced IL1-beta production in human monocytic cells after 4 hrs; assay type: functional, cell-based; settings: THP-1, 4 h
Caspase-1 = target: T1, Caspase-1 (Homo sapiens, UniProt P29466); assay: Inhibition of caspase-1 using fluorogenic substrate and BMG Fluostar plate reader for 30 min at 37 degree C
T1 sequence (P29466 whole entry): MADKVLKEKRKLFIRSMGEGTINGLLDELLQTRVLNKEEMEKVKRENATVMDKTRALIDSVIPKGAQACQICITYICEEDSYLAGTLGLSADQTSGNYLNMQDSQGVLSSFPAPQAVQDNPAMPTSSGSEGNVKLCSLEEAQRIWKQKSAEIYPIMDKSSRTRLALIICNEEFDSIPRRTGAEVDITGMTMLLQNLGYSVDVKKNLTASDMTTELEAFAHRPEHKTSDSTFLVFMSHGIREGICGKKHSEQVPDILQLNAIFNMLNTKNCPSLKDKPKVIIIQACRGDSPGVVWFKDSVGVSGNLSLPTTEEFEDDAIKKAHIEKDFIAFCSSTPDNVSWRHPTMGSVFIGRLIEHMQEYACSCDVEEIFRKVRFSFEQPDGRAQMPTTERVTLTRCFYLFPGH

Caspase-3 = target: T2, Caspase-3 (Homo sapiens, UniProt P42574); assay: Inhibition of caspase 3 using fluorogenic substrate and BMG Fluostar plate reader for 30 min at 37 degree C
T2 sequence (P42574 whole entry): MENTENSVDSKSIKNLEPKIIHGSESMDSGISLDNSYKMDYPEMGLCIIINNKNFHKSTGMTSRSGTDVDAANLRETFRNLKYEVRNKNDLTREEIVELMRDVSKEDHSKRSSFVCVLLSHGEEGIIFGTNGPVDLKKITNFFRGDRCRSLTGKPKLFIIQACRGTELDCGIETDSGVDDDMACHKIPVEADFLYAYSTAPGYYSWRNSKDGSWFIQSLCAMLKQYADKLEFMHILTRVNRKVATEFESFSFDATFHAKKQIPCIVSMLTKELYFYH

Caspase-8 = Caspase-8 (Homo sapiens, UniProt Q14790); assay: Inhibition of caspase 8 using fluorogenic substrate and BMG Fluostar plate reader for 30 min at 37 degree C
Caspase-8, sequence (Q14790 217-374 limits assumed): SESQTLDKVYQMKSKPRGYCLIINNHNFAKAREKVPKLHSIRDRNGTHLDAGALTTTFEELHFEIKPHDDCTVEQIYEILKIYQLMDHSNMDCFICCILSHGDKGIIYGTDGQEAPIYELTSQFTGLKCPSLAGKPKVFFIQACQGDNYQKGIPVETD
Caspase-8, sequence (Q14790 385-479 limits assumed): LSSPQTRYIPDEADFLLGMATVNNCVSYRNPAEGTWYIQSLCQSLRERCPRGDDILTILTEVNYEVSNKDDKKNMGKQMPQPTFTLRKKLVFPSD

SMILES	IC50 (THP-1)	IC50 (Caspase-1)	IC50 (Caspase-3)	IC50 (Caspase-8)
O=C(CN1CCCN(C(=O)C2CCCCC2)C[C@H](NC(=O)c2ccc3ccccc3c2)C1=O)N[C@H]1CC(=O)OC1O (stereo partly specified)	577 nM			
O=C(CN1CCCN(C(=O)Cc2ccccc2)C[C@H](NC(=O)c2ccc3ccccc3c2)C1=O)N[C@H]1CC(=O)OC1O (stereo partly specified)	808 nM			
CC(=O)N1CCCN(CC(=O)N[C@H]2CC(=O)OC2O)C(=O)[C@@H](NC(=O)c2ccc3ccccc3c2)C1 (stereo partly specified)	216 nM			
O=C(CN1CCCN(C(=O)c2cccc(C(F)(F)F)c2)C[C@H](NC(=O)c2ccc3ccccc3c2)C1=O)N[C@H]1CC(=O)OC1O (stereo partly specified)	1740 nM			
Cc1ccc(Cl)cc1C(=O)N1CCCN(CC(=O)N[C@H]2CC(=O)OC2O)C(=O)[C@@H](NC(=O)c2ccc3ccccc3c2)C1 (stereo partly specified)	> 2500 nM			
O=CN1CCCN(CC(=O)N[C@H]2CC(=O)OC2O)C(=O)[C@@H](NC(=O)c2ccc3ccccc3c2)C1 (stereo partly specified)	219 nM			
O=C(CN1CCCN(C(=O)N2CCOCC2)C[C@H](NC(=O)c2ccc3ccccc3c2)C1=O)N[C@H]1CC(=O)OC1O (stereo partly specified)	224 nM	44 nM	> 10000 nM	> 10000 nM
O=C(CN1CCCN(C(=O)c2ccccc2)C[C@H](NC(=O)c2cccc(C(F)(F)F)c2)C1=O)N[C@H]1CC(=O)OC1O (stereo partly specified)	1020 nM			
O=C(CN1CCCN(C(=O)c2ccccc2)C[C@H](NC(=O)c2nccc3ccccc23)C1=O)N[C@H]1CC(=O)OC1O (stereo partly specified)	280 nM	30 nM	> 10000 nM	> 10000 nM
O=C(CN1CCCN(C(=O)c2ccccc2)C[C@H](NC(=O)c2ccc3ccccc3c2)C1=O)N[C@H]1CC(=O)OC1O (stereo partly specified)	205 nM	19 nM	> 10000 nM	> 10000 nM
O=C(CN1CCCN(C(=O)c2ccccc2)C[C@H](NC(=O)c2cc3ccccc3s2)C1=O)N[C@H]1CC(=O)OC1O (stereo partly specified)	560 nM			
COc1cccc(C(=O)N2CCCN(CC(=O)N[C@H]3CC(=O)OC3O)C(=O)[C@@H](NC(=O)c3ccc4ccccc4c3)C2)c1 (stereo partly specified)	229 nM	15 nM	> 10000 nM	> 10000 nM
O=C(CN1CCCN(C(=O)c2cccc(F)c2)C[C@H](NC(=O)c2ccc3ccccc3c2)C1=O)N[C@H]1CC(=O)OC1O (stereo partly specified)	297 nM	22 nM	> 10000 nM	> 10000 nM
COc1ccccc1C(=O)N1CCCN(CC(=O)N[C@H]2CC(=O)OC2O)C(=O)[C@@H](NC(=O)c2ccc3ccccc3c2)C1 (stereo partly specified)	246 nM	38 nM	> 10000 nM	> 10000 nM
O=C(CN1CCCN(C(=O)N2CCNCC2)C[C@H](NC(=O)c2ccc3ccccc3c2)C1=O)N[C@H]1CC(=O)OC1O (stereo partly specified)	285 nM	24 nM	> 10000 nM	> 10000 nM
O=C(CN1CCCN(C(=O)c2ccccc2)C[C@H](NC(=O)c2ccccc2)C1=O)N[C@H]1CC(=O)OC1O (stereo partly specified)	1020 nM			
O=C(CN1CCCN(C(=O)c2ccccc2C(F)(F)F)C[C@H](NC(=O)c2ccc3ccccc3c2)C1=O)N[C@H]1CC(=O)OC1O (stereo partly specified)	1520 nM			
Cc1ccc(Cl)cc1C(=O)N[C@H]1CN(C(=O)c2ccccc2)CCCN(CC(=O)N[C@H]2CC(=O)OC2O)C1=O (stereo partly specified)	298 nM			
CCO[C@@H]1OC(=O)C[C@@H]1NC(=O)[C@@H]1CCCN2C(=O)CC[C@H](NC(=O)c3nccc4ccccc34)C(=O)N12 [PRALNACASAN]	120 nM	2 nM		
